Data taken from patent publication US12240813B2, “Deuterated tryptamine derivatives and methods of use” (priority 2020, dated 2025).

Key:
[1] = biological target: T1, hrMAO-A (Homo sapiens, UniProt P21397); test: Metabolic stability in the presence of hrMAO-A; format: in vitro ADME; conditions: for MAO, % (half-life as % vs. the related nondeuterated compound): values in square brackets are within 10% difference (assay's accuracy), no deuteration effect; for % Remaining of Initial, 0 min / % Remaining of Initial, 5 min / % Remaining of Initial, 10 min / % Remaining of Initial, 20 min / % Remaining of Initial, 30 min / % Remaining of Initial, 60 min / % Remaining of Initial, 120 min / CLint / Half-life: hrMAO-A; for CLint: Table 3
T1 construct: purchased XenoTech Lot #8213001
T1 sequence (P21397 1-527): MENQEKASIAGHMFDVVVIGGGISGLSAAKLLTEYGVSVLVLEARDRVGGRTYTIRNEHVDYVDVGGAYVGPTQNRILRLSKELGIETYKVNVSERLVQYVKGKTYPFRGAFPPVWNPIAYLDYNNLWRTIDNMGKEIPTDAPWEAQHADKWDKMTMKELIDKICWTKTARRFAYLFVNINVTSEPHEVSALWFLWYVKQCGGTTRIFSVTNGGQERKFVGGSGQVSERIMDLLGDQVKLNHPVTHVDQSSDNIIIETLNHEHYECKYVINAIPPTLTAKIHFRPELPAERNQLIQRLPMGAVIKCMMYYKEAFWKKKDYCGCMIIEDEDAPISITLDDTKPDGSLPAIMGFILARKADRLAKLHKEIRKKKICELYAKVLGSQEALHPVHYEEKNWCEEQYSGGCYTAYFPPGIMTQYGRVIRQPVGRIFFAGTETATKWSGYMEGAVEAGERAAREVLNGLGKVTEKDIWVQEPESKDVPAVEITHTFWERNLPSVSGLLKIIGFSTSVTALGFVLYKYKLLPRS
Protocol: The reaction mixture was prepared as described below. The co-dosed TAs were added into the reaction mixture at a final concentration of 1 microM each. The positive control, kynuramine (25 microM), was run simultaneously with the TAs in a separate reaction. The reaction mixture (without TAs or kynuramine) was equilibrated in a shaking water bath at 37° C. for 5 minutes. The reaction was initiated by the addition of the TAs or kynuramine, and the mixture was incubated in a shaking water bath at 37° C. Aliquots (100 microL) of the TA reaction mixture were withdrawn at 0, 5, 10, 20, 30, 60, and 120 minutes. Aliquots (100 microL) of the positive control reaction mixture were withdrawn at 0 and 30 minutes. TA and kynuramine samples were immediately combined with 100 microL of ice-cold 100% MeCN containing 0.1% formic acid and IS to terminate the reaction. The samples were then mixed and centrifuged to precipitate proteins. All TA samples were assayed by LC-HRAMS. The PARR (analyte to IS) at each time point was compared to the PARR at time 0 to determine the percent remaining at each time point. Reaction composition: hrMAO 0.02 mg/mL; Potassium Phosphate, pH 7.4 100 mM; Magnesium Chloride 5 mM; Test Articles (each) 1 microM.

[2] = test system: rat liver microsomes; test: Metabolic stability in rat liver microsomes (RLM); conditions: for RLM, % (half-life as % vs. the related nondeuterated compound): values in square brackets are within 10% difference (assay's accuracy), no deuteration effect
[3] = PK study in rats, cassette dosing of deuterated and non-deuterated analog; format: in vivo; conditions: rat; 5 mg/kg; oral gavage or via catheter; % change vs. non-deuterated material
Protocol: (§1) The key PK parameters (presented as a % change vs. non-deuterated materials) are presented in Table 3 to include half-life (T1/2), area under the curve (AUC), bioavailability (F) and blood-to-plasma ration (BPR). Pharmacokinetics of the deuterated tryptamines was studied in rats. In a typical experiment, run as a cassette dosing, two groups of 5 Wistar female rats (200-250 g) with surgically inserted jugular vein catheter (Charles River, Andover, MA) were fasted for 12 h and then administered 5 mg/kg of the deuterated and 5 mg/kg of the related non-deuterated analog, by oral gavage or via a catheter for each group. At time points 0, 15, 30, 60 min, and 2, 4, 8, and 24 h, the resulting plasma was analyzed for the parent molecule using LC/MS spectroscopy. Two separate groups of 5 animals were used for determining blood-to-plasma ratio (BPR). Each group was sacrificed at time points 15 and 30 min, respectively, and the concentration of the parent drug was determined in the brain and plasma by LC/MS spectroscopy.

[4] = BPR: parent drug in brain and plasma of rats; format: in vivo; conditions: rat, % change vs. non-deuterated material
Protocol: as §1

[5] = RLM, Table 2, four test articles
[6] = Table 5, d8 and d10 analogs of DMT
[7] = RLM, Table 4, d8 and d10 analogs of DMT

Row | SMILES | % Remaining of Initial, 0 min ([1]; Table 3, four test articles) [%] | % Remaining of Initial, 5 min ([1]; Table 3, four test articles) [%] | % Remaining of Initial, 10 min ([1]; Table 3, four test articles) [%] | % Remaining of Initial, 20 min ([1]; Table 3, four test articles) [%] | % Remaining of Initial, 30 min ([1]; Table 3, four test articles) [%] | % Remaining of Initial, 60 min ([1]; Table 3, four test articles) [%] | % Remaining of Initial, 120 min ([1]; Table 3, four test articles) [%] | CLint [1] [mL/min/mg protein] | Half-life ([1]; Table 3, four test articles) [h] | % Remaining of Initial, 0 min [2, 5] [%] | % Remaining of Initial, 5 min [2, 5] [%] | % Remaining of Initial, 10 min [2, 5] [%] | % Remaining of Initial, 20 min [2, 5] [%] | % Remaining of Initial, 30 min [2, 5] [%] | % Remaining of Initial, 60 min [2, 5] [%] | % Remaining of Initial, 120 min [2, 5] [%] | other results
1 | COc1ccc2[nH]cc(CCN(C)C)c2c1 [5-MeO-DMT, reference compound] | – | – | – | – | – | – | – | – | – | – | – | – | – | – | – | – | MAO (metabolized or not) ([1]; MAO-A, last assay time point 120 min): R; RLM (metabolized or not) ([2]; RLM, last assay time point 120 min): R
2 | [2H]C([2H])(Cc1c[nH]c2ccc(OC)cc12)N(C)C [5-MeO-DMT-α,α-d2] | – | – | – | – | – | – | – | – | – | – | – | – | – | – | – | – | MAO, % (half-life as % vs. the related nondeuterated compound) ([1]; MAO-A): 227%; Deuterium Kinetic Isotope Effect (% change), AUC [3]: 60%; Deuterium Kinetic Isotope Effect (% change), T1/2 [3]: 30%; Deuterium Kinetic Isotope Effect (% change), BPR, 15 min [4]: 120%; Deuterium Kinetic Isotope Effect (% change), BPR, 30 min [4]: 180%; RLM, % (half-life as % vs. the related nondeuterated compound) ([2]; RLM): 185%; collective kinetic deuterium isotope effect (reaction rate decrease for deuterated vs. non-deuterated molecule) ([2]; rat liver microsomes, 0 to 60 min, disappearance of parent peak): 150-200%
3 | CN(C)CCc1c[nH]c2ccccc12 [DMT, reference compound] | 100 | 96.3 | 90.7 | 64.8 | 49.4 | 18.1 | 3.95 | 0.638 | 0.453 | 100 | 65.2 | 52.2 | 41.0 | 33.2 | 17.4 | 4.07 | –
4 | [2H]C([2H])(Cc1c[nH]c2ccccc12)N(C)C [DMT-d2] | 100 | 106 | 111 | 101 | 97.5 | 76.0 | 59.1 | 0.126 | > 2 | 100 | 67.5 | 56.6 | 48.8 | 43.3 | 32.0 | 21.5 | –
5 | [2H]C([2H])(c1c[nH]c2ccccc12)C([2H])([2H])N(C)C [DMT-d4] | 100 | 106 | 111 | 102 | 98.2 | 77.4 | 61.4 | 0.119 | > 2 | 100 | 70.7 | 59.6 | 51.8 | 46.3 | 34.2 | 23.7 | –
6 | [2H]C([2H])([2H])N(C([2H])([2H])[2H])C([2H])([2H])C([2H])([2H])c1c[nH]c2ccccc12 [DMT-d10] | 100 | 107 | 112 | 103 | 101 | 82.2 | 68.6 | – | > 2 | 100 | 72.5 | 62.2 | 55.2 | 50.9 | 39.6 | 29.4 | stability in the MAO-A enzymatic assay ([1]; MAO-A enzymatic assay): superiority; % Remaining of Initial, 0 min [1, 6]: 100.0%; % Remaining of Initial, 5 min [1, 6]: 99.0%; % Remaining of Initial, 10 min [1, 6]: 94.9%; % Remaining of Initial, 20 min [1, 6]: 95.4%; % Remaining of Initial, 30 min [1, 6]: 91.4%; % Remaining of Initial, 60 min [1, 6]: 81.5%; % Remaining of Initial, 120 min [1, 6]: 65.8%; Half-life [1, 6]: > 2 h; % Remaining of Initial, 0 min [2, 7]: 100%; % Remaining of Initial, 5 min [2, 7]: 69.3%; % Remaining of Initial, 10 min [2, 7]: 56.0%; % Remaining of Initial, 20 min [2, 7]: 44.9%; % Remaining of Initial, 30 min [2, 7]: 39.3%; % Remaining of Initial, 60 min [2, 7]: 30.5%; % Remaining of Initial, 120 min [2, 7]: 23.6%; metabolic stability ([2]; rat liver microsomes, compared with DMT-α,α-d2 and DMT-α,α,β,β-d4): Further enhancement of metabolic stability
7 | [2H]c1[nH]c2c([2H])c([2H])c([2H])c([2H])c2c1C([2H])([2H])C([2H])([2H])N(C([2H])([2H])[2H])C([2H])([2H])[2H] [DMT-d15] | – | – | – | – | – | – | – | – | – | – | – | – | – | – | – | – | MAO, % (half-life as % vs. the related nondeuterated compound) ([1]; MAO-A): 643%; half-life compared to DMT-d10 ([2]; RLM assay): no improvement in half-life; RLM, % (half-life as % vs. the related nondeuterated compound) ([2]; RLM): 325%
8 | [2H]C([2H])(Cc1c[nH]c2cccc(O)c12)N(C)C [PI-α,α-d2] | – | – | – | – | – | – | – | – | – | – | – | – | – | – | – | – | Deuterium Kinetic Isotope Effect (% change), AUC [3]: 75%; Deuterium Kinetic Isotope Effect (% change), T1/2 [3]: 50%; Deuterium Kinetic Isotope Effect (% change), BPR, 15 min [4]: 100%; Deuterium Kinetic Isotope Effect (% change), BPR, 30 min [4]: 150%
